From patent publication US6787141B1, “Peptide having for fibrinogen fragment E activity, analogs, antibodies and uses thereof” (The University Court of The University of Aberdeen, priority 1999, dated 2004) come the findings set out here.

Experiment [1] concerns chick chorioallantoic membrane (CAM). Kind of experiment: chick chorioallantoic membrane (CAM) cell proliferation assay (DNA synthesis, tritiated thymidine). In kind it is in vivo. On the procedure: Cell proliferation was measured using the chick chorioallantoic membrane (CAM) model as described previously (4, 29, 30).The assay used is based on quantitative measurement of DNA synthesis in the CAM after exposure to control and test substances 18 h after application in liquid form to the whole “dropped” area of each CAM (4, 29). This assay is a measure of changes in CAM vascularity (30).
The rabbit and rat antisera were mixed with active fibrin degradation products. These were applied to the chick CAM with a positive control (fibrin degradation products) and a negative control (the antibody alone). The CAM was processed for incorporation of tritiated thymidine.
The rabbit antisera were then tested for ability to block the stimulatory activity of human FDP on the chick CAM model. The assay used was based on quantitative measurement of DNA synthesis in the CAM after exposure to control and test substances 18 h after application in liquid form to the whole “dropped” area of each CAM (4,29). This assay is a measure of changes in CAM vascularity (30). Anti phage antisera, raised by relatively short term immunisation of rabbits, were used at a 1/2 dilution and admixed with FDP used at a concentration of approximately 1.95 mg/ml diluted before use to 1/10. Controls included buffer only and antiserum only groups of CAMs. After filter sterilisation, 0.3 ml was added onto each CAM dropped surface.

For experiment [2], the system named is Chick fibroblasts, Cos7, mouse 3T3 and human embryonic lung cells (HEL). Kind of experiment: cell binding assays. To be noted: each of the cell types; 6 hours at 37° C. In kind it is cell-based. The protocol:
Chick fibroblasts, Cos7, mouse 3T3 and human embryonic lung cells (HEL) were cultured in a 25 cm^2 flask (Nunc) until confluent (approximately 3×10^6 cells). The cells were trypsinised and resuspended at concentration of 1.3×10^5 cells/ml. 200 μl of this cell suspension was added to each well of a 96 well culture plate (Nunc). The cells were incubated overnight at 37° C. to allow adherence and recovery. The cells were then divided into three sections, digoxygenin controls, PBS controls and digoxygenin labelled fragment E tests. Increasing concentrations of digoxygenin and digoxygenin labelled fibrin fragment E were applied from 0-30 mg per well. The plates were incubated for 6 hours at 37° C. under culture conditions.
The plates were emptied of media and washed three times with PBS. The cells were then incubated for 2 hours with sheep antidigoxygenin alkaline phosphatase and developed with p-nitrophenyl phosphate in bicarbonate buffer pH 9.8. The plates were read on a Titertek Multiscan plate reader at 405 nm.

Experiment [3] has as its system Chick fibroblasts. Kind of experiment: cell immunohistochemistry. The experiment is classed as cell-based. To be noted: 2 hours exposure. On the procedure: Chick fibroblasts were cultured in a 25 cm^2 flask (Nunc) until confluent (approximately 3×10^6 cells). The cells were washed in PBS and then trypsinised and diluted to 3×10^5 cells per ml in Dulbecco modified medium with 10% foetal calf serum. […] of the cells suspension was plated into each well of a Nunc culture well slide. The cells were incubated overnight to allow adhesion and recovery from the passaging. Digoxygenin labelled fibrin fragment E was added to a final concentration of 8 mg per ml. Control wells contained unconjugated digoxygenin and PBS.
The cells were rinsed after 2 hours with PBS then washed 3 times in TBS followed by one wash in distilled water. The cells were then incubated for 2 hours with sheep anti-digoxygenin alkaline phosphatase. The slides were then washed three times in TBS and developed with NBT and BCIP in bicarbonate buffer pH 9.8. The slides were air dried and then mounted for observation of membrane staining under the microscope.

CRAHSFGSPRPLPVV [WTM110]: in experiment [1] (FIG. 4 legend, concentration not given), the “inhibition of the stimulatory effect of FDP” value is listed as “inhibits”. The “inhibition of FDP induced cell proliferation” value in experiment [1] (peptide at 7.5 μg/ml) is recorded as “little inhibition”; in experiment [1] (peptide at 15 μg/ml) it was “inhibition was demonstrated with cell proliferation reduced to control level”.

B1: fibrin fragment E: fibrin fragment E, labelled with digoxygenin ester for detection (protein)
chain 1: GPRVVERHQSACKDSDWPFCSDEDWNYKCPSGCRMKGLIDEVNQDFTNRINKLKNSLFEYQK
chain 2: GHRPLDKKREEAPSLRPAPPPISGGGYRARPAKAAATQKKVERKAPDAGGCLHADPDLGVLCPTGCQLQEALLQQERPIRNSVDELNNNVEAVSQTSSSSFQYMYLLK
chain 3: YVATRDNCCILDERFGSYCPTTCGIADFLSTYQTKVDKDLQSLEDILHQVENKTSEVKQLIK
B1: the “binding to cells (absorbance at 405 nm compared to control preparations)” value in experiment [2] is reported as “high absorbance”. The “binding to cells (membrane staining)” value in experiment [3] is given as “shown to bind”.
